Assay results as given in patent US4668680A, “5-amino-6,8-difluoroquinolones as antibacterial agents” (Warner-Lambert Company, priority 1985, dated 1987).
Converted amounts (≈) assume the structure as drawn. Read-outs that look alike come from different tables or passages of the source.

Key:
Assay in all cases: in vitro antibacterial activity, microtitration dilution method
Format in all cases: cell-based
Escherichia coli Vogel = settings: read-out: Minimal Inhibitory Concentration MIC
Excerpt: (§1) The compounds of the invention display antibacterial activity as shown in the following table when tested by the microtitration dilution method as described in Heifetz, et al, Antimicr. Agents & Chemoth., 6, 124 (1974), which is incorporated herein by reference. […]

[1] = test system: Klebsiella pneumoniae MGH-2
Excerpt: as §1

Proteus rettgeri M 1771 = settings: Providencia rettgeri
Excerpt: as §1

[2] = test system: Pseudomonas aeruginosa UI-18
Excerpt: as §1

[3] = test system: Staphylococcus aureus H 228
Excerpt: as §1

[4] = test system: Staphylococcus aureus UC-76
Excerpt: as §1

[5] = test system: Streptococcus faecalis MGH-2; settings: Enterococcus faecalis
Excerpt: as §1

[6] = test system: Streptococcus pneumonia SV-1; settings: Streptococcus pneumoniae
Excerpt: as §1

[7] = test system: Streptococcus pyogenes C-203
Excerpt: as §1

[8] = test system: Enterobacter cloacae MA 2646; settings: MA2646, read-out: Minimal Inhibitory Concentration MIC
[9] = MGH2, Klebsiella pneumoniae MGH-2, read-out: Minimal Inhibitory Concentration MIC
[10] = M1771, Proteus rettgeri M 1771, read-out: Minimal Inhibitory Concentration MIC
[11] = UI18, Pseudomonas aeruginosa UI-18, read-out: Minimal Inhibitory Concentration MIC
[12] = H228, Staphylococcus aureus H 228, read-out: Minimal Inhibitory Concentration MIC
[13] = UC76, Staphylococcus aureus UC-76, read-out: Minimal Inhibitory Concentration MIC
[14] = MGH2, Streptococcus faecalis MGH-2, read-out: Minimal Inhibitory Concentration MIC
[15] = SV1, Streptococcus pneumonia SV-1, read-out: Minimal Inhibitory Concentration MIC
[16] = C203, Streptococcus pyogenes C-203, read-out: Minimal Inhibitory Concentration MIC

Structure (SMILES)	MIC (Escherichia coli Vogel) [µg/mL]	MIC ([1]; Klebsiella pneumoniae, MGH2, read-out: Minimal Inhibitory Concentration MIC) [µg/mL]	MIC (Proteus rettgeri M 1771; M1771, read-out: Minimal Inhibitory Concentration MIC) [µg/mL]	MIC ([2]; Pseudomonas aeruginosa, UI18, read-out: Minimal Inhibitory Concentration MIC) [µg/mL]	MIC ([3]; Staphylococcus aureus, H228, read-out: Minimal Inhibitory Concentration MIC) [µg/mL]	MIC ([4]; Staphylococcus aureus, UC76, read-out: Minimal Inhibitory Concentration MIC) [µg/mL]	MIC ([5]; MGH2, read-out: Minimal Inhibitory Concentration MIC) [µg/mL]	MIC ([6]; SV1, read-out: Minimal Inhibitory Concentration MIC) [µg/mL]	MIC ([7]; Streptococcus pyogenes, C203, read-out: Minimal Inhibitory Concentration MIC) [µg/mL]	MIC [8] [µg/mL]	MIC [1, 9] [µg/mL]	MIC (Proteus rettgeri M 1771; [10]) [µg/mL]	MIC [2, 11] [µg/mL]	MIC [3, 12] [µg/mL]	MIC [4, 13] [µg/mL]	MIC [5, 14] [µg/mL]	MIC [6, 15] [µg/mL]	MIC [7, 16] [µg/mL]
O=C(O)c1cn(C2CC2)c2cc(N3CCNCC3)c(F)cc2c1=O [Ciprofloxacin, 1-cyclopropyl-6-fluoro-1,4-dihydro-4-oxo-7-piperazinyl-3-quinoline-carboxylic acid, reference compound]	0.05 (≈ 0.151 µM)	0.1 (≈ 0.302 µM)	0.1 (≈ 0.302 µM)	0.4 (≈ 1.21 µM)	3.1 (≈ 9.36 µM)	0.2 (≈ 0.604 µM)	0.8 (≈ 2.41 µM)	1.6 (≈ 4.83 µM)	0.8 (≈ 2.41 µM)									
Nc1c(F)c(N2CCNCC2)c(F)c2c1c(=O)c(C(=O)O)cn2C1CC1 [Ex. 1, 5-amino-1-cyclopropyl-6,8-difluoro-1,4-dihydro-4-oxo-7-(1-piperazinyl)-3-quinolinecarboxylic acid]	0.013 (≈ 0.0357 µM)									0.013 (≈ 0.0357 µM)	0.025 (≈ 0.0686 µM)	0.05 (≈ 0.137 µM)	0.025 (≈ 0.0686 µM)	0.05 (≈ 0.137 µM)	0.013 (≈ 0.0357 µM)	0.05 (≈ 0.137 µM)	0.05 (≈ 0.137 µM)	0.2 (≈ 0.549 µM)
CN1CCN(c2c(F)c(N)c3c(=O)c(C(=O)O)cn(C4CC4)c3c2F)CC1 [Ex. 2, 5-Amino-1-cyclopropyl-6,8-difluoro-1,4-dihydro-7-(4-methyl-1-piperazinyl)-4-oxo-3-quinolinecarboxylic acid]	0.013 (≈ 0.0344 µM)									0.013 (≈ 0.0344 µM)	0.013 (≈ 0.0344 µM)	0.05 (≈ 0.132 µM)	0.1 (≈ 0.264 µM)	0.05 (≈ 0.132 µM)	0.025 (≈ 0.0661 µM)	0.1 (≈ 0.264 µM)	0.2 (≈ 0.529 µM)	0.4 (≈ 1.06 µM)
